Reference: article PMC5833849, “Sensitizing tumor cells to conventional drugs: HSP70 chaperone inhibitors, their selection and application in cancer models” (Cell Death & Disease, 2018)
Like-named read-outs stand apart in the source and are kept apart here. Values belong to the compound of their own block, whether it stands above or below them.

What was measured:
[1] = molecular target: T1, Hsp70 (Homo sapiens, UniProt P0DMV8); experiment: microscale thermophoresis (also DARTS; inhibition of substrate binding and luciferase refolding by Hsp70)
T1 construct: gene HSPA1A; Recombinant human Hsp70

[2] = molecular target: T1, Hsp70; experiment: inhibition of Hsp70 binding to carboxymethylated lactalbumin ([…] at […]); luciferase refolding ([…] at […]); format: biochemical
[3] = molecular target: T1, Hsp70; experiment: as above; format: biochemical; remark: listed apart in the source

T1 sequence (P0DMV8 2-641): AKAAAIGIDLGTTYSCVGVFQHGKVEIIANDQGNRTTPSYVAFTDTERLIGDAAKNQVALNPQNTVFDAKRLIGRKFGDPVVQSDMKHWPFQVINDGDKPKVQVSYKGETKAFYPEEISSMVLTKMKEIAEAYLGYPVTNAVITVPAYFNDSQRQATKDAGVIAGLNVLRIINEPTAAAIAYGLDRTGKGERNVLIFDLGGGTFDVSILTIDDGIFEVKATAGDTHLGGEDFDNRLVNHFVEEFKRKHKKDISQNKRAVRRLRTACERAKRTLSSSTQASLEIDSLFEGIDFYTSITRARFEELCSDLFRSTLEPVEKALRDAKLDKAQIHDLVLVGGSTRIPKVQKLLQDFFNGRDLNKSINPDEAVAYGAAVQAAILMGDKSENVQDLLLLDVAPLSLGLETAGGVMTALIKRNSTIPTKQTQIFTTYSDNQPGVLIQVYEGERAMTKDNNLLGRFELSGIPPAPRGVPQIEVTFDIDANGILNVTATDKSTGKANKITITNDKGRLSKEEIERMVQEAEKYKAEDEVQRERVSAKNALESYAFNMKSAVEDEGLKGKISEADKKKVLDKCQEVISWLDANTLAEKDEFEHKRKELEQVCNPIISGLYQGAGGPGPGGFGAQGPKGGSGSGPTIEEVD

SMILES: COc1cc2c(c(OC)c1OC)-c1ccc(NCCN)c(=O)cc1[C@@H](NC(C)=O)CC2 [AEAC]
Kd [1]: 149 ± 49.6 nM

inhibition at 1 µM [2]: 27%
SMILES: CCn1c(=Cc2cccc[n+]2CC)sc(=C2Sc3ccccc3N2C)c1=O [MKT-077]

inhibition at 1 µM [3]: 19%
SMILES: N#Cc1ccc(COC[C@H]2O[C@@H](n3c(NCc4ccc(Cl)c(Cl)c4)nc4c(N)ncnc43)[C@H](O)[C@@H]2O)cc1 [VER-155008]
